Among the data in a melting point compilation (Tetko et al.; mined from patent text by program, amines drawn as free bases though some values may be those of a salt) are melting point values, retold here.

What is called melting point is the temperature, or range, at which the solid turns liquid.

The compound `O=C(NCc1ncc(C(F)(F)F)cc1Cl)c1c(Cl)nc2c(c1Cl)CCCC2` had a melting point of 48 to 50 °C.
On to `CCOC(=O)c1ccc(NC(=O)NCCN2CCN=C2c2ccncc2)cc1`, for which the melting point is 120 °C.
`Cc1noc(NS(=O)(=O)c2ccc([N+](=O)[O-])cc2)c1Br` showed a melting point of 146 to 149 °C.
For `N#CN=C(Nc1cccnc1)NC1(c2cccc(Cl)c2)CCC1`, the melting point lay in the range of 102 to 104 °C.
The compound `O=[N+]([O-])c1ccc(Nc2c(F)c(F)nc(F)c2F)c(C(F)(F)F)c1` registered a melting point of 104 to 105 °C.
As for `CON(C)CCN1C(=O)c2ccccc2C1=O`, the melting point was in the range of 130 to 132 °C.
`COCc1c(-c2cc(C)no2)ncc2[nH]c3ccc(OCc4ccccc4)cc3c12` had a melting point of 202 to 203 °C.
For the compound `O=C(O)c1cccc(-c2nc(-c3ccc(Cl)cc3)cs2)c1`, the melting point was in the range of 265 to 266 °C.
Take `Nc1cccc(C(O)c2cc3c(Oc4ccc(Cl)cc4)cncc3s2)c1` (centres undefined): the melting point fell in the range of 73 to 78 °C.
As for `FC(F)(F)Oc1ccc(Nc2nc(-c3ccccc3)cc(N3CCOCC3)n2)cc1`, the melting point fell in the range of 260 to 262 °C.
Under `O=C1CN(C(c2ccccc2)c2ccccc2)N1` stands 160 to 163 °C; under `N#Cc1ccc(-c2ccc(OC(F)(F)F)c(CNC3CCN(C(=O)CO)CC3c3ccccc3)c2)c(F)c1` (centres undefined), 132 to 134 °C; under `CSc1ccc(CN(C2CCOCC2)S(=O)(=O)c2ccc(Cl)cc2)cc1`, 124 to 127 °C.
Regarding `C=Cc1cc(-c2ccc(S(C)(=O)=O)cc2)n(CC2CCCCC2)n1`, the melting point lay in the range of 136 to 138 °C.
Under `CC(C)n1c(=O)n(CC2CO2)c2cc(-c3ncc(C(F)(F)F)cc3Cl)ccc21` (centres undefined) stands 110 to 111 °C; under `O=[N+]([O-])c1cn2c(n1)OC(COc1ccc(N3CCN(CC4CCN(Cc5ccc(C(F)(F)F)cc5)CC4)CC3)cc1)CC2` (centres undefined), 214 to 217 °C; under `CS(=O)(=O)Nc1cccc(Nc2nc(NCc3ccccc3CO)c3nc[nH]c3n2)c1`, 145 to 148 °C.
For `CC(C)(C)N1CCN(Cc2ccc([N+](=O)[O-])cc2)S1(=O)=O`, the melting point is 113 °C.
Turning to `O=C(O)c1cnc(-c2ccc(NC(=O)C(Cl)Cl)cc2)nc1O`, the melting point was over 310 °C.
`COC(=O)Cc1noc2cc(F)ccc12` came in with a melting point of 60 to 61 °C.
`CCc1c([N+](=O)[O-])c(C(N)=O)nn1CCOC` came in with a melting point of 140 °C.
As to `COC(=O)C(C)(C(=O)O)N1C(=O)CCC(N2C(=O)c3ccccc3C2=O)C1=O` (centres undefined), the melting point is 143 to 146 °C.
`O=C(O)C(Cc1ccsc1)N1C(=O)c2ccccc2C1=O` (centres undefined) returned a melting point of 162 to 165 °C.
The compound `CCCSc1ccc(N)c([N+](=O)[O-])c1` returned a melting point of 36.5 to 38 °C.
Regarding `CCCc1c(OCCCCCC(=O)NC(C)CCCc2cccnc2)ccc(C(C)=O)c1O` (centres undefined), the melting point is 63 to 66 °C.
`CC(O)(C(=O)O)c1ccc2c(c1)[nH]c1ccc(Cl)cc12` (centres undefined) had a melting point of 218 to 220 °C.
On to `C#Cc1cc(Nc2ncnc3cnc(C)cc23)ccc1F`, for which the melting point is 225 °C.
As for `CNN1C(=O)CSC1=Cc1cc(C(C)(C)C)c(O)c(C(C)(C)C)c1`, the melting point lay within 151 to 154 °C.
To `CCC(C)(C)NC(Nc1ccc2ncsc2c1)=C(C#N)S(C)(=O)=O` belongs 112 to 114 °C.
The compound `O=C(Cl)ON1C(=O)c2ccccc2C1=O` gave a melting point of 113 to 115 °C.
`O=C(NC(CO)CO)c1cnccc1C(F)(F)F` registered a melting point of 155 to 156 °C.
Regarding `O=S(=O)(ON=C1c2ccccc2-c2ccccc21)c1ccc(O)cc1`, the melting point lay within 216 to 217 °C.
With `Cn1c(=O)n(-c2cc(Cl)cc(Cl)c2)c(=O)n1C`, the melting point was in the range of 209 to 211 °C.
The compound `O=C(CC1COCCO1)NC1CCC(CCN2CCN(c3nccc4c3OCC4)CC2)CC1` (centres undefined) returned a melting point of 181 °C.
Turning to `COc1ccc(Cn2ccnc2C=Cc2ccc([N+](=O)[O-])o2)cc1`, the melting point was in the range of 151 to 152 °C.
Compound `CC(C)(C)c1cc(SCCc2n[nH]c(=S)o2)cc(C(C)(C)C)c1O` gave a melting point of 124 °C.
In turn, `CCCCOc1ccc(Cc2nn(-c3ccccc3Cl)c(=S)o2)cc1` yielded a melting point of 69 °C.
For the compound `CN(C)C(=O)NNCC1CC2c3cccc4[nH]cc(c34)CC2N(C)C1` (centres undefined), the melting point lay within 205 to 206 °C.
For the compound `CCc1nc(N)nc(N)c1-c1ccc(Cl)c(N=NN(CCO)C(C)(C)C)c1`, the melting point is 224 to 225 °C.
The compound `COc1ccc(-c2cc(C#N)c(=O)[nH]c2C)cc1` gave a melting point of 258 to 259 °C.
In turn, `CN1C(=O)C(CC(NC(=O)c2ccc(Cl)cc2)C(=O)O)c2ccccc21` (centres undefined) registered a melting point of 115 to 120 °C.
In turn, `O=C(NCCCO)c1cccc(-c2cccc(Oc3cc(Cl)cc(Cl)c3)n2)c1` came in with a melting point of 101 to 102 °C.
Take `COc1ccc(CNc2nc(N3CCC[C@H]3CO)ncc2C(=O)Nc2cncnc2)cc1Cl`: the melting point was in the range of 192 to 195 °C.
On to `CC1CCC(c2ccc(OCC(=O)O)c(Cl)c2Cl)=CC1=O` (centres undefined), for which the melting point was in the range of 183 to 185 °C.
Turning to `O=S(=O)(Nc1ccc(Cl)cc1C1=NN(c2ccccc2)CC1)C(F)(F)F`, the melting point was 138 to 163 °C.
`Cc1oc(-c2ccccc2)nc1CCOc1ccc(C[C@H](NC(=O)C(F)=Cc2ccccc2)C(=O)O)cc1` came in with a melting point of 174 to 176 °C.
In the case of `C[C@@H]1CN(CCCn2c3ccc(O)cc3c3c4c(c(-c5c(Cl)cccc5Cl)cc32)C(=O)NC4=O)C[C@H](C)N1`, the melting point is 160 to 165 °C.
Compound `CC(COc1ccc(CCO)cc1)NCC(O)c1ccccc1` (centres undefined) had a melting point of 93 to 96 °C.
In turn, `COCOc1cccc(ON=C(C)C)c1C#N` came in with a melting point of 62 to 64 °C.
`O=C(c1cc(I)c(O)c(I)c1)c1c(Cc2ccccc2)oc2ccccc12` registered a melting point of 153 to 154 °C.
In turn, `C=C(C)C(=O)NCC(OC)OC` showed a melting point of 30 to 32 °C.
On to `O=[N+]([O-])c1ccc(C(Cl)(Cl)Br)cc1`, for which the melting point lay in the range of 51.3 to 52.9 °C.
In turn, `C(CCc1ccccc1)=C1CCN(Cc2nc3ccccc3[nH]2)CC1` registered a melting point of 163 to 165 °C.
Consider `O=[N+]([O-])c1ccc(NCCc2c[nH]cn2)nc1`, for which the melting point fell in the range of 162 to 163 °C.
`CCCCOC(=O)c1c(CSc2nccn2C)nc2cc(OC)c(OC)cc2c1-c1ccc(OC)c(OC)c1`: the melting point fell in the range of 131 to 132 °C.
Regarding `Cc1ccccc1C(CCC(=O)NS(=O)(=O)c1ccccc1)Oc1cc(OCc2ccsc2)ccc1C#N` (racemic), the melting point lay in the range of 68 to 70 °C.
To `COc1ccc(C(=O)NNc2ccc(NC(=S)Nc3ccccc3)cc2)cc1` belongs 178 °C; to `Cc1nc(-c2ccccc2)nc(-c2ccncc2)c1C(=O)O`, 270 to 271 °C.
To `N#Cc1c[nH]cc1-c1cccc(Cl)c1F` belongs 178 °C; to `Cc1c(C)c2c(c(C)c1O)CCC(C#N)(C(C)C)O2` (centres undefined), 132 °C.
To `Cc1cc(N(C)C)cc(C)c1C1OC(C)(C)N=C1c1ccccc1` (centres undefined) belongs 105 °C; to `CN(C(=O)CN(O)C(N)=O)c1cccc(Oc2ccccc2)c1`, 110 to 112 °C.
`O=C(O)[C@@H](O)Cc1ccc(O)c([N+](=O)[O-])c1` came in with a melting point of 111 °C.
As for `O=C1Nc2ccc(F)c(F)c2C1c1ncnc2c1cnn2C1CCCC1` (centres undefined), the melting point is over 300 °C.
Under `C=CCOc1cc(NCC)c(C(C)=O)cc1C(C)=O` stands 82 to 83 °C; under `N#Cc1ccc(-c2nc(COc3ccc(CCCn4ccnc4)cc3)co2)cc1`, 98 to 99 °C.
Turning to `O=S(=O)(/C=C/c1ccc(F)cc1)CS(=O)(=O)/C=C/c1ccc(F)cc1`, the melting point was 183 to 185 °C.
`CC(=O)c1ccc2c(c1)OCC(=O)N2` gave a melting point of 197 to 198 °C.
For `CCOC(=O)C(=CNC1CC1)C(=O)c1c(F)c(F)c(F)c(F)c1N(C)C`, the melting point is 122 to 124 °C.
`Cc1cc(C(F)(F)F)cc(N(C(N)=O)c2c(Cl)cccc2Cl)n1` had a melting point of 165 °C.
On to `CCOC(=O)c1cc(=O)c2cccc(NC(=O)c3ccc4c(c3)CC(CSCc3ccccc3)O4)c2o1` (centres undefined), for which the melting point is 175 to 177 °C.
`O=[N+]([O-])c1ccc(OCCCl)cc1`: the melting point came out at 60 °C.
The compound `CCNC(=O)c1sc(SC)c2c1CCc1sc(-c3ccccc3)nc1-2` returned a melting point of 211 to 212 °C.
`Cc1ccc(C2=C(c3ccc(C)cc3)C(c3ccc(C)cc3)=C(c3ccc(C)cc3)C2=O)cc1` showed a melting point of 244 to 245 °C.
For the compound `CC(C(=O)N1CCCC1C(=O)O)N(C(=O)C(NC(=O)c1ccccc1)SC(=O)c1ccccc1)C(C)(C)C` (centres undefined), the melting point lay within 97 to 100 °C.
To `CCc1c(-c2ccccc2)nc(C(C)C)c(C#CI)c1-c1ccc(F)cc1` belongs 117 to 119 °C; to `Cc1ccccc1C(=O)CN1C(=O)C(NC(=O)Nc2cccc(-c3nnn[nH]3)c2)N=C(C2CCCCC2)c2cccc(C)c21` (centres undefined), 165 to 177 °C.
To `C=C(C(=O)O)c1ccc2cc(OC)ccc2c1` belongs 175 °C; to `O=C1CNC(=S)N1c1ccc2nc(S)sc2c1`, over 266 °C.
Under `Cc1c(CO)c2cnnc(OCc3ccc(F)cc3)c2n1Cc1ccccc1` stands 122 to 124 °C; under `CON=C(C)CN(C(=O)c1ccco1)c1c(C)cccc1C`, 108 to 109 °C.
`FC(F)(F)c1nn(-c2c(Cl)cc(Cl)cc2Cl)cc1Br`: the melting point was 93 to 94 °C.
For the compound `CCOc1nc(=O)n(C(=O)Nc2cccc(Cl)c2)s1`, the melting point was 141 °C.
Under `OC1c2cc(OCc3ccccn3)ccc2OCC1Cc1cccnc1` (centres undefined) stands 108 to 110 °C; under `Oc1ccc2c(c1)OCC1c3ccccc3OC21` (centres undefined), 148 to 152 °C.
Under `CCCCCc1cc2c(cc1/C=C/C=C/C(C)=C/C(=O)O)C(C)(C)CCC2(C)C` stands 164 to 166 °C; under `Cc1nc(SCc2ccc(C(=O)O)s2)sc1CC(=O)O`, 188 to 190 °C.
`O=C(CC(O)c1ccncc1)c1ccccc1O` (centres undefined) registered a melting point of 150 °C.
`Cc1cc2c(c(C)c1Br)C(=O)C(C)(C)O2` showed a melting point of 63 to 64 °C.
